Reference: publication PMC7889895, “Crystal structure of a photosynthetic LH1-RC in complex with its electron donor HiPIP” (Nature Communications, 2021)

Target: T1, HiPIP (Thermochromatium tepidum, UniProt P80176)
T1 construct: gene hip; native, purified from cells by DEAE chromatography in the reduced state; co-crystallised with native LH1-RC; with Photosynthetic reaction center cytochrome c subunit
Assay: X-ray crystal structure of HiPIP:LH1-RC co-complex, […] Å
Type: binding
Conditions: pH 5; 4Fe-4S cluster ligated by Cys; HiPIP purified in reduced state; bound to LH1-RC

T1 sequence (P80176 whole entry, other chains not shown): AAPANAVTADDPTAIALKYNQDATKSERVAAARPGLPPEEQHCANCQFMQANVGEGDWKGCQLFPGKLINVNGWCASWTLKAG

Structure (SMILES): [S]12[Fe]3[S]4[Fe]1[S]1[Fe]2[S]3[Fe]41 [4Fe-4S cluster]
- X-ray crystal structure of HiPIP:LH1-RC co-complex, 2.9 Å: Fe atoms in both hemes and the 4Fe-4S cluster were clearly resolved
